Reference: the supplement of paper PMC8612539
Converted amounts (≈) assume the structure as drawn.

System: Escherichia coli
Experiment: minimum inhibitory concentration (MIC)
Description: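 Broth microdilution MIC (Sensititre BOPO7F bovine plate, CLSI methods) of 19 antimicrobials against field isolates of P. multocida, M. haemolytica, H. somni (deep nasopharyngeal swabs) and E. coli, Enterococcus spp. (rectal swabs) from weaned dairy heifers. Incubation 16-24 h at 35 C. MIC is the lowest concentration preventing visible growth. Values with <= or > lie at the tested range limits. Trimethoprim-sulfamethoxazole is given as the trimethoprim component of a 1:19 mixture.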

CCCN1C[C@H](C)[C@@H](O)[C@](C)(O)[C@@H](CC)OC(=O)[C@H](C)[C@@H](O[C@H]2C[C@@](C)(OC)[C@@H](O)[C@H](C)O2)[C@H](C)[C@@H](O[C@@H]2O[C@H](C)C[C@H](N(C)C)[C@H]2O)[C@](C)(O)C[C@H]1C [Gamithromycin]
Conditions	minimum inhibitory concentration [µg/mL]
isolate (source animal id): 8	8 (≈ 10.3 µM)
isolate (source animal id): 9	> 8
isolate (source animal id): 10	8 (≈ 10.3 µM)
isolate (source animal id): 11	8 (≈ 10.3 µM)
isolate (source animal id): 12	8 (≈ 10.3 µM)
isolate (source animal id): 13	8 (≈ 10.3 µM)
isolate (source animal id): 14	> 8
isolate (source animal id): 15	4 (≈ 5.15 µM)
isolate (source animal id): 16	8 (≈ 10.3 µM)
isolate (source animal id): 98	8 (≈ 10.3 µM)
isolate (source animal id): 99	8 (≈ 10.3 µM)
isolate (source animal id): 100	4 (≈ 5.15 µM)
isolate (source animal id): 101	8 (≈ 10.3 µM)
isolate (source animal id): 102	8 (≈ 10.3 µM)
isolate (source animal id): 103	8 (≈ 10.3 µM)
isolate (source animal id): 104	8 (≈ 10.3 µM)
isolate (source animal id): 105	8 (≈ 10.3 µM)
isolate (source animal id): 106	> 8
isolate (source animal id): 107	8 (≈ 10.3 µM)
isolate (source animal id): 108	8 (≈ 10.3 µM)
isolate (source animal id): 109	8 (≈ 10.3 µM)
isolate (source animal id): 110	4 (≈ 5.15 µM)
isolate (source animal id): 111	4 (≈ 5.15 µM)
isolate (source animal id): 112	8 (≈ 10.3 µM)
isolate (source animal id): 113	4 (≈ 5.15 µM)
isolate (source animal id): 114	8 (≈ 10.3 µM)
isolate (source animal id): 115	> 8
isolate (source animal id): 116	4 (≈ 5.15 µM)
isolate (source animal id): 117	> 8
isolate (source animal id): 118	8 (≈ 10.3 µM)
isolate (source animal id): 119	> 8
isolate (source animal id): 120	> 8
isolate (source animal id): 121	8 (≈ 10.3 µM)
isolate (source animal id): 122	8 (≈ 10.3 µM)
isolate (source animal id): 123	8 (≈ 10.3 µM)
isolate (source animal id): 124	> 8
isolate (source animal id): 125	≤ 1
isolate (source animal id): 126	> 8
isolate (source animal id): 127	8 (≈ 10.3 µM)
isolate (source animal id): 128	4 (≈ 5.15 µM)
isolate (source animal id): 129	4 (≈ 5.15 µM)
isolate (source animal id): 130	4 (≈ 5.15 µM)
isolate (source animal id): 131	4 (≈ 5.15 µM)
isolate (source animal id): 132	8 (≈ 10.3 µM)
isolate (source animal id): 133	8 (≈ 10.3 µM)
isolate (source animal id): 134	8 (≈ 10.3 µM)
isolate (source animal id): 135	8 (≈ 10.3 µM)
isolate (source animal id): 136	8 (≈ 10.3 µM)
isolate (source animal id): 137	8 (≈ 10.3 µM)
isolate (source animal id): 138	> 8
isolate (source animal id): 139	> 8
isolate (source animal id): 140	8 (≈ 10.3 µM)
isolate (source animal id): 141	> 8
isolate (source animal id): 142	8 (≈ 10.3 µM)
isolate (source animal id): 143	> 8
isolate (source animal id): 144	> 8
isolate (source animal id): 145	> 8
isolate (source animal id): 146	8 (≈ 10.3 µM)
isolate (source animal id): 147	> 8
isolate (source animal id): 148	8 (≈ 10.3 µM)
isolate (source animal id): 149	8 (≈ 10.3 µM)
isolate (source animal id): 150	> 8
isolate (source animal id): 151	8 (≈ 10.3 µM)
isolate (source animal id): 152	4 (≈ 5.15 µM)
isolate (source animal id): 153	8 (≈ 10.3 µM)
isolate (source animal id): 154	8 (≈ 10.3 µM)
isolate (source animal id): 155	4 (≈ 5.15 µM)
isolate (source animal id): 156	> 8
isolate (source animal id): 157	8 (≈ 10.3 µM)
isolate (source animal id): 158	8 (≈ 10.3 µM)
isolate (source animal id): 159	4 (≈ 5.15 µM)
isolate (source animal id): 160	> 8
isolate (source animal id): 161	> 8
isolate (source animal id): 162	8 (≈ 10.3 µM)
isolate (source animal id): 163	8 (≈ 10.3 µM)
isolate (source animal id): 164	8 (≈ 10.3 µM)
isolate (source animal id): 165	8 (≈ 10.3 µM)
isolate (source animal id): 166	4 (≈ 5.15 µM)
isolate (source animal id): 167	8 (≈ 10.3 µM)
isolate (source animal id): 168	8 (≈ 10.3 µM)
isolate (source animal id): 169	8 (≈ 10.3 µM)
isolate (source animal id): 170	8 (≈ 10.3 µM)
isolate (source animal id): 171	8 (≈ 10.3 µM)
isolate (source animal id): 172	8 (≈ 10.3 µM)
isolate (source animal id): 173	4 (≈ 5.15 µM)
isolate (source animal id): 174	8 (≈ 10.3 µM)
isolate (source animal id): 175	8 (≈ 10.3 µM)
isolate (source animal id): 176	8 (≈ 10.3 µM)
isolate (source animal id): 177	8 (≈ 10.3 µM)
isolate (source animal id): 178	8 (≈ 10.3 µM)
isolate (source animal id): 179	8 (≈ 10.3 µM)
isolate (source animal id): 180	8 (≈ 10.3 µM)
isolate (source animal id): 181	> 8
isolate (source animal id): 182	8 (≈ 10.3 µM)
isolate (source animal id): 183	8 (≈ 10.3 µM)
isolate (source animal id): 184	8 (≈ 10.3 µM)
isolate (source animal id): 185	8 (≈ 10.3 µM)
isolate (source animal id): 186	8 (≈ 10.3 µM)
isolate (source animal id): 187	4 (≈ 5.15 µM)
isolate (source animal id): 188	2 (≈ 2.57 µM)
